Laboratory results as given in the CombiSolv-Exp solvation set (Vermeire and Green 2021).
One block for each molecule: values may come before it.

Assay: solvent given as SMILES

SMILES: ClC=CCl
solvation free energy, 298 K (in COC(C)=O): -3.98 kcal/mol
solvation free energy, 298 K (in ClCCCl): -3.71 kcal/mol

SMILES: Nc1ccc2ccccc2c1
solvation free energy, 298 K (in CCCCCC): -8.89 kcal/mol
solvation free energy, 298 K (in CCCCCCCC): -8.96 kcal/mol
solvation free energy, 298 K (in O): -7.47 kcal/mol

SMILES: O=c1[nH]cc(I)c(=O)[nH]1
solvation free energy, 298 K (in O): -18.7 kcal/mol

SMILES: Cc1ccc2cc(C)ccc2c1
solvation free energy, 298 K (in CCCCCCCCC=CCCCCCCCC(=O)OCC(COC(=O)CCCCCCCC=CCCCCCCCC)OC(=O)CCCCCCCC=CCCCCCCCC): -8.29 kcal/mol
solvation free energy, 298 K (in CCCCCCCO): -8.28 kcal/mol
solvation free energy, 298 K (in CCCCCCO): -8.36 kcal/mol
solvation free energy, 298 K (in CCCCCO): -8.49 kcal/mol
solvation free energy, 298 K (in CCCCO): -8.59 kcal/mol
solvation free energy, 298 K (in CCO): -8.85 kcal/mol
solvation free energy, 298 K (in O): -2.37 kcal/mol

SMILES: CCSC
solvation free energy, 298 K (in O): -1.5 kcal/mol

SMILES: CCOCCOC(C)=O
solvation free energy, 298 K (in O): -5.31 kcal/mol

SMILES: Cc1cccc(C)c1N
solvation free energy, 298 K (in O): -5.21 kcal/mol

SMILES: CC(C)O
solvation free energy, 298 K (in C1CCOC1): -4.75 kcal/mol
solvation free energy, 298 K (in C1COCCO1): -4.37 kcal/mol
solvation free energy, 298 K (in CC#N): -4.42 kcal/mol
solvation free energy, 298 K (in CC(=O)CC(C)=O): -4.41 kcal/mol
solvation free energy, 298 K (in CC(=O)N(C)C): -5.29 kcal/mol
solvation free energy, 298 K (in CC(C)(C)O): -5.02 kcal/mol
solvation free energy, 298 K (in CC(C)CC(C)(C)C): -2.9 kcal/mol
solvation free energy, 298 K (in CC(C)CCCC(C)CCCC(C)CCCCC(C)CCCC(C)CCCC(C)C): -2.29 kcal/mol
solvation free energy, 298 K (in CC(Cl)(Cl)Cl): -4.07 kcal/mol
solvation free energy, 298 K (in CCC(C)=O): -4.54 kcal/mol
solvation free energy, 298 K (in CCCC(C)O): -4.85 kcal/mol
solvation free energy, 298 K (in CCCCCC): -2.76 kcal/mol
solvation free energy, 298 K (in CCCCCCC): -2.71 kcal/mol
solvation free energy, 298 K (in CCCCCCCCCCCCCCCC): -2.37 kcal/mol
solvation free energy, 298 K (in CCCCCCCCCCO): -4.49 kcal/mol
solvation free energy, 298 K (in CCCCCCCCO): -4.61 kcal/mol
solvation free energy, 298 K (in CCCCCO): -4.99 kcal/mol
solvation free energy, 298 K (in CCCCN(C=O)CCCC): -4.71 kcal/mol
solvation free energy, 298 K (in CCCCO): -5.02 kcal/mol
solvation free energy, 298 K (in CCCO): -5.07 kcal/mol
solvation free energy, 298 K (in CCCOCCC): -3.74 kcal/mol
solvation free energy, 298 K (in CCN(CC)C(C)=O): -5.2 kcal/mol
solvation free energy, 298 K (in CCNC(C)=O): -5.09 kcal/mol
solvation free energy, 298 K (in CCNC=O): -5.03 kcal/mol
solvation free energy, 298 K (in CCO): -5.27 kcal/mol
solvation free energy, 298 K (in CCOC(=O)c1ccccc1C(=O)OCC): -3.75 kcal/mol
solvation free energy, 298 K (in CCOC(C)=O): -4.13 kcal/mol
solvation free energy, 298 K (in CCOCCO): -4.87 kcal/mol
solvation free energy, 298 K (in CCOP(=O)(OCC)OCC): -4.97 kcal/mol
solvation free energy, 298 K (in CN1CCCC1=O): -5.12 kcal/mol
solvation free energy, 298 K (in CN1CCN(C)C1=O): -5.1 kcal/mol
solvation free energy, 298 K (in CNC(C)=O): -5.12 kcal/mol
solvation free energy, 298 K (in CO): -5.53 kcal/mol
solvation free energy, 298 K (in COC(C)(C)C): -4.22 kcal/mol
solvation free energy, 298 K (in COC(C)=O): -4.46 kcal/mol
solvation free energy, 298 K (in Cc1ccc(C)cc1): -3.39 kcal/mol
solvation free energy, 298 K (in Cc1cccc(C)c1): -3.33 kcal/mol
solvation free energy, 298 K (in O): -4.76 kcal/mol
solvation free energy, 298 K (in O=CN1CCOCC1): -4.53 kcal/mol
solvation free energy, 298 K (in OCCOCCO): -4.77 kcal/mol
solvation free energy, 298 K (in [2H]O[2H]): -4.86 kcal/mol

SMILES: Oc1ccc(Br)cc1Br
solvation free energy, 298 K (in O): -5.69 kcal/mol

SMILES: FC(Cl)Cl
solvation free energy, 298 K (in CN1CCCC1=O): -1.34 kcal/mol
solvation free energy, 298 K (in CN(C)C=O): -1.35 kcal/mol
solvation free energy, 298 K (in O): 1.54 kcal/mol

SMILES: C#CC(C)(C)O
solvation free energy, 298 K (in O): -5.18 kcal/mol

SMILES: Nc1ccc(Cc2ccc(N)cc2)cc1
solvation free energy, 298 K (in O): -16.3 kcal/mol

The next lines start with the values.

solvation free energy, 298 K (in O): -2.92 kcal/mol
SMILES: CC1CCC(C)O1 (configuration not stated)

solvation free energy, 298 K (in C=CCCCCCCCCCCCCCC): -10.5 kcal/mol
solvation free energy, 298 K (in O): -16.5 kcal/mol
SMILES: O=C(O)Cc1ccc(C(=O)O)cc1

solvation free energy, 298 K (in CCCCCCCCO): 1.76 kcal/mol
solvation free energy, 298 K (in O): 2.35 kcal/mol
SMILES: [H][H]

solvation free energy, 298 K (in O): 2.94 kcal/mol
SMILES: CC(C)CCC(C)(C)C

solvation free energy, 298 K (in CCCCCCCCCCCCCCCC): -5.94 kcal/mol
solvation free energy, 298 K (in CCCCCCCCO): -6.26 kcal/mol
solvation free energy, 298 K (in NC=O): -4.6 kcal/mol
solvation free energy, 298 K (in O): -2.29 kcal/mol
solvation free energy, 298 K (in [2H]O[2H]): -2.44 kcal/mol
SMILES: CCCCCCOC(C)=O

solvation free energy, 298 K (in O): -6.83 kcal/mol
SMILES: CCCCCCCCOC(=O)c1ccccc1C(=O)OCCCC

solvation free energy, 298 K (in O): -6.25 kcal/mol
SMILES: CCCCOCCO

solvation free energy, 298 K (in O): -9.07 kcal/mol
SMILES: O=C(O)CCCc1ccccc1

solvation free energy, 298 K (in O): -2.78 kcal/mol
SMILES: C=C(c1ccccc1)c1ccccc1

solvation free energy, 298 K (in O): -4.79 kcal/mol
SMILES: CCC(=O)CC(C)=O

solvation free energy, 298 K (in O): -9 kcal/mol
SMILES: O=C(O)CCc1ccccc1

solvation free energy, 298 K (in O): -2.4 kcal/mol
SMILES: COC(=O)C(C)(C)C

solvation free energy, 298 K (in O): -0.23 kcal/mol
SMILES: CCCCCc1ccccc1
